Test results published in patent publication US11105794B2, “In vitro nephrotoxicity screening assay” (Hoffmann-La Roche Inc., priority 2016, dated 2021).
l = locked nucleic acid (LNA); d = 2'-deoxy (DNA)

Experiments:
PTEC-TERT1 cells = assay: EGF assay, supernatant of PTEC-TERT1 cells; conditions: for Toxicity grade: from EGF, assay window saline vs toxic reference compound 4-1
Method: Prior to treatment with oligonucleotides the PTEC-TERT1 were seeded into collagen I-coated 96-well plates (Corning, 356407) at a density of 40 000 and 20 000 cells/well respectively in PTEC medium and grown until confluence.
(§4) Oligonucleotides were dissolved in PBS and added to the cell culture at the given concentration, such as 10, 30 or 100 μM. The total volume of each well was 100 μl. PBS served as vehicle control.
(§5) When extra cellular markers, like EGF and KIM-1, were analyzed following the oligonucleotide treatment the medium was collected and stored at −20° C. until further analysis. […] The collected medium was stored at −20° C.
For analysis of human EGF, cell supernatants were thawed on ice, diluted 1:2 and 1:10 in sample dilution buffer (BioRad catalog # M60-009RDPD) and analyzed by Luminex®-based ELISA using human EGF beads (Bio-Plex Pro™ Human Cancer Biomarker Panel 2 EGF Set#171BC603M), or followed by analysis using the Bio-Plex® 200 Systems (BioRad) according to the manufacturer's instructions. Data are reported as mean concentrations and standard deviations of triplicate wells.

PCSK9 mRNA = assay: Target knock down (PCSK9 mRNA levels) in PTEC-TERT1 cells; type: cell-based, human; conditions: normalized to PPIB
Method: For assessment of the target knock down (PCSK9 mRNA levels) total mRNA was extracted from the cells adding 100 μl of 1× RNA lysis mixture (QuantiGene® Sample Processing Kit, QS0101) directly into the wells according to the manufacturer's instructions. RNA lysis mixtures were kept at −80° C. until analysis. For gene expression analysis, 20 μl of lysates were mixed with an mRNA-capture magnetic beads sets (Panomics QuantiGene® Plex Set catalog #12697), incubated overnight, processed for branched DNA amplification and analyzed according to the manufacturer's instructions (Panomics QuantiGene® Plex Assay kit, QP1015). The PPIB probe was used as housekeeping gene for normalization. Average Fluoresence Intensity (FI) and standard deviation of 3 biological replicates were calculated and normalized on vehicle control. The results are shown in table 11, and represent the average of three identical treatments.

A549 cells [1] = assay: Intracellular ATP assay, A549 cells transfected with oligonucleotide; type: cell-based, human; conditions: A549, 48 hours after transfection;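 also: ATP as percent of saline control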
Method: (§1) A549 cells (ATCC CCL-185) were cultivated according to the manufacturer's instructions in A549 medium [F-12K Nut Mix (Gibco, 21127-022), 1% penicillin/streptomycin (Gibco: 15140-122), 10% FBS (Gibco 16000-044)].
(§2) Prior to treatment with oligonucleotides the A549 cells were seeded in 96 well plates at 3′000 cells per well in A549 regular medium and grown until 60% confluence. […]
Each sample was tested in triplicate.
(§3) A549 were cultivated as described in the “Materials and methods” section. At after at 50-60% confluence the oligonucleotides were transfected into the cells using 0.5 μl Lipofectamin (Invitrogen, 11668-019) in 25 μl OptiMEM® (GIBCO 31985062) and 1 ng or 10 ng oligonucleotide in the same volume OptiMEM. The cells were incubated over night at 37° C. The medium was changed using A459 regular medium+10 ng/ml EGF. 48 hours after transfection the medium was collected for EGF measurements and the cells were harvested for ATP measurements.

[2] = system: Wistar Han Crl:WI(Han) male rats; assay: In vivo nephrotoxicity in rats; conditions: 40 mg/kg on days 1 and 8, assessed day 15, 40 mg/kg
Method: Purpose bred Wistar Han Crl:WI(Han) male rats obtained from Charles River Laboratories at 7 to 8 weeks of age were divided into groups of 4 (table 1, exp. A) or 8 (table 1, exp. B) based on body weight and acclimatized for at least 5 days before dosing. The animals were housed under standard environmental conditions ([…], relative humidity 50±20%, a light/dark cycle 12 h/12 h, pelleted food and water ad libitum), were offered enriched environment in an AAALAC accredited facility and were regularly and carefully monitored. All procedures were in accordance with the respective local regulations and according to the animal permissions granted by the Institutional Animal Care and Use Committee. Test compounds were formulated in isotonic sterile saline, sterile filtered (0.22 μm), and dosed at 40 mg/kg on days 1 and 8 (2.5 ml/kg) in the intrascapular region. Control group animals received saline as vehicle control. On day 15 animals were orally administered tap water (10 ml/kg), and urine was collected on ice for 6 hours in metabolic cages. […] On day 15 the rats were sacrificed by an intraperitoneal injection of pentobarbital and exsanguinated. Kidney cortex samples were collected and fixed by immersion in 10% neutral buffered formalin, embedded in paraffin, sectioned to 5 μm and stained with hematoxylin and eosin (H&). The H&E sections were then scanned at 20× magnification using an Aperio ScanScope AT™ (Leica Biosystems) scanner and pictures were then captured via ImageScope™ software from the scanned images. One or more of the following parameters were assessed kidney weight, serum creatinine, urine protein, KIM-1 protein in urine, KIM-1 mRNA, kidney degeneration/regeneration and relative tubulotoxicity grade.

[3] = system: Human primary proximal tubule epithelial cells (PTEC); assay: EGF assay, supernatant of primary PTEC cells
Method: Prior to treatment with oligonucleotides the primary PTEC cells were seeded into collagen I-coated 96-well plates (Corning, 356407) at a density of 40 000 and 20 000 cells/well respectively in PTEC medium and grown until confluence.
as §4, §5
For analysis of human EGF, cell supernatants were thawed on ice, diluted 1:2 and 1:10 in sample dilution buffer (BioRad catalog # M60-009RDPD) and analyzed by Luminex®-based ELISA using human EGF beads (Bio-Plex Pro™ Human Cancer Biomarker Panel 2 EGF Set#171BC603M), or followed by analysis using the Bio-Plex® 200 Systems (BioRad) according to the manufacturer's instructions. Data are reported as mean concentrations and standard deviations of triplicate wells. An increase of EGF levels above 200% was considered as predictive for nephrotoxicity.

A549 cells [4] = assay: EGF assay, A549 cells transfected with oligonucleotide; type: cell-based, human; conditions: A549, 48 hours after transfection;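 also: values as percent of saline control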
Method: as §1, §2, §3

[5] = system: Primary human hepatocytes; assay: EGF assay, culture media of primary human hepatocytes; type: cell-based; conditions: 10 ng/ml EGF in medium;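 also: values as percent of saline vehicle control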
Method: Cryopreserved human hepatocytes were suspended in William's Medium E (WME) without phenol red (Sigma W-1878) supplemented with 10% fetal calf serum, penicillin (100 U/ml), streptomycin (0.1 mg/ml) at a density of approx. 1×10^6 cells/ml and seeded into collagen-coated 96-well plates (Becton Dickinson AG, Allschwil, Switzerland) at a density of 0.4×10^5 cells/well. Cells were pre-cultured for 3 to 4 h allowing for attachment to cell culture plates before start of treatment with oligonucleotides.
Before oligonucleotide treatment the seeding medium was replaced by 90 μl of serum free WME.
The total volume of each well was 100 μl. PBS served as vehicle control.
Human primary hepatocytes were cultivated as described in the “Materials and methods” section with addition of 10 ng/ml of EGF to the medium. At confluence the cells were treated with oligonucleotide as described in the “Materials and methods” section, in concentrations of 10 or 100 μM.
The medium was obtained at day 3, and the EGF level was measured according to the assay described in the “Materials and methods” section.

[6] = PTEC-TERT1, 6 days, 10 ng/ml EGF in medium, 25 μM
[7] = PTEC-TERT1, 6 days, 10 ng/ml EGF in medium, 100 μM
[8] = PTEC-TERT1, 6 days, No EGF in Medium, 25 μM
[9] = PTEC-TERT1, 6 days, No EGF in Medium, 100 μM
[10] = PTEC-TERT1, Day 3, 3 μM (Table 2)
[11] = PTEC-TERT1, Day 3, 10 μM (Table 2)
[12] = PTEC-TERT1, Day 3, 11 μM (Table 3)
[13] = PTEC-TERT1, Day 3, 30 μM (Table 2)
[14] = PTEC-TERT1, Day 3, 33 μM (Table 3)
[15] = PTEC-TERT1, Day 3, 100 μM (Table 2)
[16] = PTEC-TERT1, Day 3, 100 μM (Table 3)
[17] = PTEC-TERT1, Day 6, 3 μM (Table 2)
[18] = PTEC-TERT1, Day 6, 10 μM (Table 2)
[19] = PTEC-TERT1, Day 6, 30 μM (Table 2)
[20] = PTEC-TERT1, Day 6, 100 μM (Table 2)
[21] = PTEC-TERT1, Day 7, 11 μM (Table 3)
[22] = PTEC-TERT1, Day 7, 33 μM (Table 3)
[23] = PTEC-TERT1, Day 7, 100 μM (Table 3)
[24] = PTEC-TERT1, Day 10, 11 μM (Table 3)
[25] = PTEC-TERT1, Day 10, 33 μM (Table 3)
[26] = PTEC-TERT1, Day 10, 100 μM (Table 3)
[27] = PTEC-TERT1, EGF 0 ng/ml in medium
[28] = PTEC-TERT1, EGF 10 ng/ml in medium

GCtgtgtgagcttGG (antisense GCTGTGTGAGCTTGG; sugars from the 5' end l2 d11 l2, backbone and methylation of C not given here) [Compound 4-1]
EGF (PTEC-TERT1 cells; [6]): 731.7 pg/mL | EGF (PTEC-TERT1 cells; [7]): 1957.8 pg/mL | EGF (PTEC-TERT1 cells; PTEC-TERT1, 6 days, 10 μM oligonucleotide (Table 7)): 2622 % saline | Toxicity grade (PTEC-TERT1 cells; PTEC-TERT1, 6 days, 10 μM): 100 | EGF (PTEC-TERT1 cells; PTEC-TERT1, 6 days, 30 μM oligonucleotide (Table 7)): 7311 % saline | Toxicity grade (PTEC-TERT1 cells; PTEC-TERT1, 6 days, 30 μM): 100 | EGF (PTEC-TERT1 cells; [8]): 5.4 pg/mL | EGF (PTEC-TERT1 cells; [9]): 5.3 pg/mL | EGF (PTEC-TERT1 cells; [10]): 71 % saline | EGF (PTEC-TERT1 cells; [11]): 116 % saline | EGF (PTEC-TERT1 cells; [12]): 225 % saline | EGF (PTEC-TERT1 cells; [13]): 302 % saline | EGF (PTEC-TERT1 cells; [14]): 368 % saline | EGF (PTEC-TERT1 cells; [15]): 1572 % saline | EGF (PTEC-TERT1 cells; [16]): 484 % saline | EGF (PTEC-TERT1 cells; [17]): 37 % saline | EGF (PTEC-TERT1 cells; [18]): 222 % saline | EGF (PTEC-TERT1 cells; [19]): 8398 % saline | EGF (PTEC-TERT1 cells; [20]): 8899 % saline | EGF (PTEC-TERT1 cells; [21]): 637 % saline | EGF (PTEC-TERT1 cells; [22]): 983 % saline | EGF (PTEC-TERT1 cells; [23]): 983 % saline | EGF (PTEC-TERT1 cells; [24]): 1177 % saline | EGF (PTEC-TERT1 cells; [25]): 1865 % saline | EGF (PTEC-TERT1 cells; [26]): 1792 % saline | PCSK9 mRNA (PCSK9 mRNA; [27]): 6.84 % of saline | PCSK9 mRNA (PCSK9 mRNA; [28]): 1.47 % of saline | ATP (A549 cells [1]; 1 ng oligonucleotide): 93 % saline | ATP (A549 cells [1]; 10 ng oligonucleotide): 51 % saline | In vivo nephrotoxicity / in vivo grade of toxicity [2]: high and High and Sever tox | EGF ([3]; Day 3, 3 μM): 198 % saline | EGF ([3]; Day 3, 10 μM): 323 % saline | EGF ([3]; Day 3, 30 μM): 373 % saline | EGF ([3]; Day 3, 100 μM): 631 % saline | EGF ([3]; Day 6, 3 μM): 525 % saline | EGF ([3]; Day 6, 10 μM): 1171 % saline | EGF ([3]; Day 6, 30 μM): 1588 % saline | EGF ([3]; Day 6, 100 μM): 1403 % saline | EGF (A549 cells [4]; 1 ng oligonucleotide): 132 % saline | EGF (A549 cells [4]; 10 ng oligonucleotide): 211 % saline | EGF ([5]; day 3, 10 μM): 323 % saline | EGF ([5]; day 3, 100 μM): 985 % saline

TGCtacaaaacCCA (antisense TGCTACAAAACCCA; sugars from the 5' end l3 d8 l3, backbone and methylation of C not given here) [Compound 3-1]
EGF (PTEC-TERT1 cells; [6]): 245.0 pg/mL | EGF (PTEC-TERT1 cells; [7]): 341.8 pg/mL | EGF (PTEC-TERT1 cells; [8]): 6.3 pg/mL | EGF (PTEC-TERT1 cells; [9]): 12.2 pg/mL | EGF (PTEC-TERT1 cells; [10]): 70 % saline | EGF (PTEC-TERT1 cells; [11]): 75 % saline | EGF (PTEC-TERT1 cells; [12]): 151 % saline | EGF (PTEC-TERT1 cells; [13]): 70 % saline | EGF (PTEC-TERT1 cells; [14]): 213 % saline | EGF (PTEC-TERT1 cells; [15]): 128 % saline | EGF (PTEC-TERT1 cells; [16]): 207 % saline | EGF (PTEC-TERT1 cells; [17]): 124 % saline | EGF (PTEC-TERT1 cells; [18]): 137 % saline | EGF (PTEC-TERT1 cells; [19]): 231 % saline | EGF (PTEC-TERT1 cells; [20]): 2413 % saline | EGF (PTEC-TERT1 cells; [21]): 168 % saline | EGF (PTEC-TERT1 cells; [22]): 287 % saline | EGF (PTEC-TERT1 cells; [23]): 493 % saline | EGF (PTEC-TERT1 cells; [24]): 41 % saline | EGF (PTEC-TERT1 cells; [25]): 138 % saline | EGF (PTEC-TERT1 cells; [26]): 227 % saline | PCSK9 mRNA (PCSK9 mRNA; [27]): 2.28 % of saline | PCSK9 mRNA (PCSK9 mRNA; [28]): 1.46 % of saline | ATP (A549 cells [1]; 1 ng oligonucleotide): 91 % saline | ATP (A549 cells [1]; 10 ng oligonucleotide): 44 % saline | In vivo nephrotoxicity / in vivo grade of toxicity [2]: Medium | EGF ([3]; Day 3, 3 μM): 114 % saline | EGF ([3]; Day 3, 10 μM): 139 % saline | EGF ([3]; Day 3, 30 μM): 134 % saline | EGF ([3]; Day 3, 100 μM): 269 % saline | EGF ([3]; Day 6, 3 μM): 152 % saline | EGF ([3]; Day 6, 10 μM): 286 % saline | EGF ([3]; Day 6, 30 μM): 653 % saline | EGF ([3]; Day 6, 100 μM): 915 % saline | EGF (A549 cells [4]; 1 ng oligonucleotide): 99 % saline | EGF (A549 cells [4]; 10 ng oligonucleotide): 199 % saline | EGF ([5]; day 3, 10 μM): 227 % saline | EGF ([5]; day 3, 100 μM): 411 % saline
